Assay type in all cases: in vivo
The subject of assay [1] is barnyardgrass (Echinochloa crus-galli). The experiment in a line: Test A postemergence, barnyardgrass. The note with it: Echinochloa crus-galli, post-emergence, 240 h, Postemergence, 0 to 100 scale (0 no effect, 100 complete control); for pest or weed control at 125 g/ha: 125 g ai/ha; for pest or weed control at 500 g/ha: 500 g ai/ha. The procedure, abridged: (§1)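 After sowing into a sand-amended loam, pots for the preemergence test were treated by spraying directly onto soil. In parallel, seedlings at the one- to two-leaf stage and 2 to 10 cm tall were treated postemergence with the identical surfactant-containing formulation.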

The test system of assay [2] is ragweed (common ragweed, Ambrosia artemisiifolia). The experiment in a line: Test A postemergence, ragweed. The note with it: Ambrosia artemisiifolia, post-emergence, 240 h, Postemergence, 0 to 100 scale (0 no effect, 100 complete control); for pest or weed control at 125 g/ha: 125 g ai/ha; for pest or weed control at 500 g/ha: 500 g ai/ha. The essentials:
(§2)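 Whole-plant herbicidal screen in pots of loam blended with sand. Sprays used a surfactant-containing, non-phytotoxic solvent vehicle. Timing was preemergence soil-directed at planting or postemergence at the one- to two-leaf stage (2–10 cm).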

For assay [3] the test system is unchanged. Nature of the assay: Test A preemergence, ragweed. The note with it: Ambrosia artemisiifolia, pre-emergence, 240 h, Preemergence; for pest or weed control at 125 g/ha: 125 g ai/ha; for pest or weed control at 500 g/ha: 500 g ai/ha. The essentials:
as §2

Assay [4] relates to galium (catchweed bedstraw, Galium aparine). The experiment in a line: Test A postemergence, galium. To be noted: Galium, post-emergence, 240 h, Postemergence, 0 to 100 scale (0 no effect, 100 complete control); for pest or weed control at 125 g/ha: 125 g ai/ha; for pest or weed control at 500 g/ha: 500 g ai/ha. The procedure, abridged:
as §1

Where [5] appears, read: visual injury approx. 10 days, read-out: Plant response rating, Barnyardgrass.
Where [6] appears, read: visual injury, approx. 10 days, read-out: Plant response rating, Barnyardgrass.
The mark [7] stands for this setting: visual injury approx. 10 days, read-out: Plant response rating, Ragweed.
The mark [8] stands for this setting: visual injury, approx. 10 days, read-out: Plant response rating, Ragweed.
[9] abbreviates: visual injury on 0 to 100 scale (0 no effect, 100 complete control), approximately 10 days, read-out: Ragweed plant response rating.
Where [10] appears, read: 0 to 100 scale (0 no effect, 100 complete control), read-out: Plant response rating, Ragweed.
Where [11] appears, read: visual injury approx. 10 days, read-out: Plant response rating, Galium.
Setting [12] is: visual injury, approx. 10 days, read-out: Plant response rating, Galium.
Setting [13] is: visual injury vs untreated controls after approx. 10 days, read-out: Barnyardgrass plant response rating.
The mark [14] stands for this setting: visual injury vs untreated controls after approx. 10 days, read-out: Ragweed plant response rating.
Setting [15] is: visual injury vs untreated controls after approx. 10 days, read-out: Galium plant response rating.
Setting [16] is: read-out: Plant response rating, Ragweed.
Where [17] appears, read: read-out: Plant response rating, Galium.
Setting [18] is: visual injury, 0 to 100 scale (0 no effect, 100 complete control), approx. 10 days, read-out: Plant response rating, Ragweed.

Read-outs that look alike come from different tables or passages of the source.

With `Cc1cc(Cl)c(NS(=O)(=O)C(F)(F)F)cc1C(=O)N1CCOCC1` [Compound 16, N-[2-Chloro-4-methyl-5-(4-morpholinylcarbonyl)phenyl]-1,1,1-trifluoromethanesulfonamide], the pest or weed control at 125 g/ha was 60% in assay [1] (setting [5]), 80% in assay [2] (setting [7]), 80% in assay [3] (setting [9]) and 80% in assay [4] (setting [11]). The pest or weed control at 500 g/ha in assay [1] (setting [6]) is 90%; in assay [2] (setting [8]) it was 90%; in assay [3] (setting [10]) it was 100%; in assay [4] (setting [12]), 90%.
Turning to `Cc1cc(Cl)c(NS(=O)(=O)C(F)(F)F)cc1C(=O)N1CCCCC1` [Compound 18, N-[2-Chloro-4-methyl-5-(1-piperidinylcarbonyl)phenyl]-1,1,1-trifluoromethanesulfonamide], the pest or weed control at 125 g/ha in assay [1] (setting [5]) was determined as 0%; in assay [2] (setting [7]), 0%; in assay [3] (setting [9]), 0%; in assay [4] (setting [11]) it was 80%. Besides, the pest or weed control at 500 g/ha in assay [1] (setting [6]) was 70%; in assay [2] (setting [8]), 80%; in assay [3] (setting [10]) it was 30%; in assay [4] (setting [12]), 80%.
As for `CCc1cc(-c2cc(NS(=O)(=O)C(F)(F)F)c(C)cc2C)c(=O)n(C)n1` [Compound 34, N-[5-(6-Ethyl-2,3-dihydro-2-methyl-3-oxo-4-pyridazinyl)-2,4-dimethylphenyl]-1,1,1-trifluoromethanesulfonamide], the pest or weed control at 125 g/ha was determined as 0% in assay [1] (setting [5]), 0% in assay [2] (setting [7]), 0% in assay [3] (setting [9]) and 10% in assay [4] (setting [11]). The pest or weed control at 500 g/ha came out at 0% in assay [1] (setting [6]), 0% in assay [2] (setting [8]), 20% in assay [3] (setting [10]) and 0% in assay [4] (setting [12]).
Regarding `Cc1cc(C)c(N(COC(=O)C(C)(C)C)S(=O)(=O)C(F)(F)F)cc1C1=NO[C@@H]2CCC[C@H]12` [Compound 100, [[2,4-Dimethyl-5-[(3aR,6aR)-3a,5,6,6a-tetrahydro-4H-cyclopent[d]isoxazol-3-yl]phenyl][(trifluoromethyl)sulfonyl]amino]methyl 2,2-dimethylpropanoate], the pest or weed control at 125 g/ha came to 80% in assay [1] (setting [5]), 40% in assay [2] (setting [7]), 20% in assay [3] (setting [9]) and 80% in assay [4] (setting [11]). For the same compound, the pest or weed control at 500 g/ha in assay [1] (setting [13]) came out at 90%; in assay [2] (setting [14]) it was 80%; in assay [3] (setting [10]) it was 80%; in assay [4] (setting [15]) it was 90%.
Take `Cc1cc(C)c(C2=NO[C@@H]3CCC[C@H]23)cc1NS(=O)(=O)C(F)(F)F` [Compound 103, N-[2,4-Dimethyl-5-[(3aR,6aR)-3a,5,6,6a-tetrahydro-4H-cyclopent[d]isoxazol-3-yl]phenyl]-1,1,1-trifluoromethanesulfonamide]: the pest or weed control at 125 g/ha came out at 90% in assay [1] (setting [5]), 60% in assay [2] (setting [7]), 70% in assay [3] (setting [9]) and 90% in assay [4] (setting [11]). The pest or weed control at 500 g/ha in assay [1] (setting [13]) is 90%; in assay [2] (setting [14]) it was 70%; in assay [3] (setting [10]) it was 90%; in assay [4] (setting [15]), 100%.
On to `Cc1cc(C)c(C2=NOC3CCOCC23)cc1NS(=O)(=O)C(F)(F)F` (centres unmarked) [Compound 120, N-[2,4-Dimethyl-5-(3a,6,7,7a-tetrahydro-4H-pyrano[3,4-d]isoxazol-3-yl)phenyl]-1,1,1-trifluoromethanesulfonamide], for which the pest or weed control at 125 g/ha was 90% in assay [1] (setting [5]), 80% in assay [2] (setting [7]), 90% in assay [3] (setting [9]) and 90% in assay [4] (setting [11]). Also, the pest or weed control at 500 g/ha in assay [1] (setting [13]) was found to be 90%; in assay [2] (setting [14]) it was 90%; in assay [3] (setting [10]), 100%; in assay [4] (setting [15]), 90%.
For the compound `Cc1cc(C)c(C2=NOC3COCCC23)cc1NS(=O)(=O)C(F)(F)F` (centres unmarked) [Compound 121, N-[2,4-Dimethyl-5-(3a,4,7,7a-tetrahydro-5H-pyrano[4,3-d]isoxazol-3-yl)phenyl]-1,1,1-trifluoromethanesulfonamide], the pest or weed control at 125 g/ha in assay [1] (setting [5]) amounted to 90%; in assay [2] (setting [7]), 90%; in assay [3] (setting [9]), 80%; in assay [4] (setting [11]), 90%. For the same compound, the pest or weed control at 500 g/ha in assay [1] (setting [13]) was 90%; in assay [2] (setting [14]) it was 90%; in assay [3] (setting [10]), 100%; in assay [4] (setting [15]), 90%.
Take `Cc1c(NS(=O)(=O)C(F)(F)F)cc(C(=O)N(C)C)c(C)c1F` [Compound 128, 3-Fluoro-N,N,2,4-tetramethyl-5-[[(trifluoromethyl)sulfonyl]amino]benzamide]: the pest or weed control at 125 g/ha in assay [1] (setting [5]) was found to be 50%; in assay [2] (setting [7]), 80%; in assay [3] (setting [9]), 90%; in assay [4] (setting [11]), 80%. In addition, the pest or weed control at 500 g/ha in assay [1] (setting [13]), in assay [2] (setting [14]), in assay [3] (setting [10]) and in assay [4] (setting [15]) was 90% throughout.
With `Cc1cc(C)c(N(COC(=O)C(C)(C)C)S(=O)(=O)C(F)(F)F)cc1C1=NOC2(CCCC2)C1` [Compound 140, [[2,4-Dimethyl-5-(1-oxa-2-azaspiro[4.4]non-2-en-3-yl)phenyl][(trifluoromethyl)sulfonyl]amino]methyl 2,2-dimethylpropanoate], the pest or weed control at 125 g/ha turned out to be 70% in assay [1] (setting [5]), 0% in assay [2] (setting [16]), 30% in assay [3] (setting [9]) and 50% in assay [4] (setting [11]). Besides, the pest or weed control at 500 g/ha in assay [1] (setting [13]) was determined as 90%; in assay [2] (setting [14]) it was 50%; in assay [3] (setting [10]), 60%; in assay [4] (setting [15]), 70%.
For `Cc1cc(C)c(N(COC(=O)C(C)(C)C)S(=O)(=O)C(F)(F)F)cc1C1=NOC2(CCCCC2)C1` [Compound 159, [[2,4-Dimethyl-5-(1-oxa-2-azaspiro[4.5]dec-2-en-3-yl)phenyl][(trifluoromethyl)sulfonyl]amino]methyl 2,2-dimethylpropanoate], the pest or weed control at 125 g/ha was found to be 30% in assay [1] (read-out: Plant response rating, Barnyardgrass); 60% in assay [2] (setting [16]); 80% in assay [3] (setting [9]); 80% in assay [4] (setting [17]). The pest or weed control at 500 g/ha in assay [1] (setting [13]) stood at 80%; in assay [2] (setting [14]) it was 90%; in assay [3] (setting [10]), 80%; in assay [4] (setting [15]) it was 90%.
As to `Cc1cc(C)c(C2=NOC3(CCCCC3)C2)cc1NS(=O)(=O)C(F)(F)F` [Compound 197, N-[2,4-Dimethyl-5-(1-oxa-2-azaspiro[4.5]dec-2-en-3-yl)phenyl]-1,1,1-trifluoromethanesulfonamide], the pest or weed control at 125 g/ha in assay [2] (setting [16]) was found to be 80%; in assay [3] (setting [18]), 80%; in assay [4] (setting [17]), 90%. For the same compound, the figures for the pest or weed control at 500 g/ha in assay [2] (setting [14]), in assay [3] (setting [10]) and in assay [4] (setting [15]) were 80%, 90% and 90%, respectively.
Consider `Cc1cc(Cl)c(NS(=O)(=O)C(F)(F)F)cc1C(=O)N1CCC(F)(F)CC1` [Compound 229, N-[2-Chloro-5-[(4,4-difluoro-1-piperidinyl)carbonyl]-4-methylphenyl]-1,1,1-trifluoromethanesulfonamide], for which the pest or weed control at 125 g/ha in assay [2] (setting [16]), in assay [3] (setting [18]) and in assay [4] (setting [17]) was 90% in each case. In addition, the pest or weed control at 500 g/ha in assay [2] (setting [14]) was 90%; in assay [3] (setting [9]) it was 100%; in assay [4] (setting [15]), 90%.

These data come from US20230278972A1, “SUBSTITUTED HALOALKYL SULFONANILIDE HERBICIDES” (FMC Corporation, priority 2020, published 2023).
